Test [1] is described as follows: Inhibition of amyloid beta 25-35 fibril formation at 10 uM by using UV-visible measurements and electron microscopy analysis.
The nature of test [2]: Inhibition of amyloid beta 25-35 fibril formation by using UV-visible measurements and electron microscopy analysis.

Drawing on ChEMBL document CHEMBL1155494, “New stilbene dimers against amyloid fibril formation” (Bioorg Med Chem Lett, 2010), this text covers inhibition and EC50 for 16 compounds.

The structures appear in SMILES notation.

What is called inhibition is the percentage by which the read-out fell short of the control. Broadly, the EC50 is the concentration that produces a half-maximal response. On to `Oc1ccc(/C=C/c2cc(O)cc3c2[C@H](c2cc(O)cc(O)c2)[C@@H](c2ccc(O)c(O)c2)O3)cc1` [SCIRPUSIN A], for which the inhibition in test [1] came out at 80%. The compound also registered an EC50 in test [2] of 0.7 µM.
For `COc1cc(/C=C/c2cc(O)cc(O)c2)ccc1O[C@@H]1O[C@H](CO)[C@@H](O)[C@H](O)[C@H]1O`, the inhibition in test [1] was 28%.
Compound `OC[C@@H]1O[C@H](Oc2ccc(/C=C/c3cc(O)c4c(c3)O[C@H](c3ccc(O[C@H]5O[C@@H](CO)[C@H](O)[C@@H](O)[C@@H]5O)cc3)[C@H]4c3cc(O)cc(O)c3)cc2)[C@@H](O)[C@H](O)[C@H]1O` [12,GNEMENOSIDE A] came in with an inhibition in test [1] of 46%. In test [2], this compound yielded an EC50 of 10 µM.
Regarding `Oc1cc(O)cc(-c2cc3ccc(O)cc3o2)c1`, in test [1], the inhibition was 9%.
On the same count and under the same terms, as for `OC[C@H]1O[C@@H](Oc2ccc(/C=C/c3cc(O)cc(O)c3)cc2)[C@H](O)[C@@H](O)[C@@H]1O`, the figure is 11%; as for `COc1cc(/C=C/c2ccc(O)cc2)cc(OC)c1`, 35%; as for `COc1cc(/C=C/c2cc(O)c3c(c2)O[C@H](c2ccc(O)c(OC)c2)[C@H]3c2cc(O)cc(O)c2)ccc1O`, 40%.
The same measure, in the same setting: as for `Oc1cc(O)cc(/C=C/c2ccc(O)cc2O)c1`, the figure is 32%; as for `Oc1cc(O)cc(/C=C/c2ccc(O)c(O)c2)c1`, 25%.
The compound `Oc1ccc(/C=C/c2cc(O)cc(O)c2)cc1` [RESVERATROL] returned an inhibition in test [1] of 63%. Further, the response in test [2] was half-maximal at 6 µM (EC50).
`OC[C@H]1O[C@@H](Oc2cc(O)cc(/C=C/c3ccc(O)cc3)c2)[C@H](O)[C@@H](O)[C@@H]1O` [PICEID] showed an inhibition in test [1] of 62%. This compound also showed an EC50 in test [2] of 6 µM.
`COc1cc(/C=C/C(=O)CC(=O)/C=C/c2ccc(O)c(OC)c2)ccc1O` [CURCUMIN] showed an inhibition in test [1] of 45%. Moreover, it took 10 µM to reach a half-maximal effect in test [2] (EC50).
On to `Oc1ccc(C2Oc3ccc(/C=C/c4cc(O)cc5c4[C@H](c4cc(O)cc(O)c4)[C@@H](c4ccc(O)cc4)O5)cc3[C@@H]2c2cc(O)cc3c2[C@H](c2cc(O)cc(O)c2)C(c2ccc(O)cc2)O3)cc1` (some centres not stated), for which the inhibition in test [1] came to 32%.
On the same count and under the same terms, in the case of `Oc1ccc([C@H]2Oc3cc(O)c([C@@H]4[C@@H](c5cc6c(cc5O)O[C@H](c5ccc(O)cc5)[C@H]6c5cc(O)cc(O)c5)[C@H](c5ccc(O)cc5)O[C@@H]4c4ccc(O)cc4)cc3[C@@H]2c2cc(O)cc(O)c2)cc1` it was 17%.
On to `OC[C@H]1O[C@@H](Oc2cc(/C=C/c3ccc(O)cc3)c3c(c2)O[C@H](c2ccc(O)cc2)[C@H]3c2cc(O)cc(O)c2)[C@H](O)[C@@H](O)[C@@H]1O`, for which, in test [1], the inhibition is 93%. Moreover, it took 0.2 µM to reach a half-maximal effect in test [2] (EC50).
In test [1], `Oc1ccc(/C=C/c2cc(O)cc3c2[C@H](c2cc(O)cc(O)c2)[C@@H](c2ccc(O)cc2)O3)cc1` registered an inhibition of 27%.
